Reference: paper PMC8231349 (Journal of Enzyme Inhibition and Medicinal Chemistry, 2021)
Several values for one entry are separate records, joined by “and”; a condition that tells them apart may be missing. Identical values can stand only once.

Assays:
[1] = system: human lung cancer cells (A549); assay: MTT cell viability assay, A549; format: cell-based; conditions: 72 h
Description: (§1) Experiments were performed on human prostate cancer cells (DU145; ATCC HTB-81), human lung cancer cells (A549; ATCC CCL-185-LUC2) and human bronchial epithelium cells (BEAS-2B; ATCC CRL-9609). Cells were grown in Dulbecco's modified Eagle's medium (DMEM) supplemented with 10% of heat-inactivated foetal bovine serum (FBS), 100 U/ml penicillin and 100 μg/ml streptomycin (Sigma-Aldrich, Steinheim, Germany). Cells were incubated at 37 °C in a humidified atmosphere with 5% CO2. […] Cells were seeded into 96-well plates at a density of 7,0 × 10[3] cells/well in 100 µl of culture medium. After 24 h, cells were treated with the compounds at three different concentrations (1 µM, 10 µM and 50 µM) for 72 h. Following treatments, 0.5 mg/ml of 3-[4,5-dimethylthiazol-2-yl]-2,5-diphenyltetrazolium bromide (MTT) (Sigma Aldrich) was added to each well and incubated for 4 h at 37 °C. Finally, DMSO was used to dissolve formazan salts and absorbance was measured at 570 nm in a microplate reader (Biotek Synergy-HT). […]
(§2) Compound 3 was preliminarily assessed for its cytotoxic activity towards human prostate and lung cancer cell lines (DU145 and A549, respectively), in which the overexpression of the HO-1 has been confirmed[46]^,[47]. […] Cell survival was calculated compared to untreated controls for 72 h. At the end of treatment, cell viability was evaluated using the MTT assay. […]

[2] = set-up: method as in PMID 29454190; conditions: predicted; ref [34]; cited from earlier work
[3] = system: human prostate cancer cells (DU145); assay: MTT cell viability assay, DU145; format: cell-based; conditions: 72 h
Description: as §1, §2

[4] = set-up: method as in PMID 29454190; conditions: predicted, ref [34], cited from earlier work
HO-1 = biological target: T1, HO-1 (Rattus norvegicus, UniProt P06762); assay: HO-1 enzymatic activity in the microsomal fraction of rat spleen (bilirubin formation); format: biochemical; conditions: mean ± SD of triplicate assays
T1 construct: selected in order to use the most native (i.e. closest to in vivo) forms of HO-1; from tissue; host or cells: rat spleen microsomal fraction (male Sprague-Dawley rats)
T1 sequence (P06762 1-289): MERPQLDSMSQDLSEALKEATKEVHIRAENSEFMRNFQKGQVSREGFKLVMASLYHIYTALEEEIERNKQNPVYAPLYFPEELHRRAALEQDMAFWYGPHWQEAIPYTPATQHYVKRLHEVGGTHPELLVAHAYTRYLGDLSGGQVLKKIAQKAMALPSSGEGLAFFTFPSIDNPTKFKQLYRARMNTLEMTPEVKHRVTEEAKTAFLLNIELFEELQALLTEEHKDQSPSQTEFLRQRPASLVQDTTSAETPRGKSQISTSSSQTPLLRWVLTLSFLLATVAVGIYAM
Description: Since the dominance of HO-1 protein in the rat spleen has been well documented, HO-1 was obtained from rat spleen as the microsomal fraction prepared by differential centrifugation. This particular microsomal preparation was selected in order to use the most native (i.e. closest to in vivo) forms of HO-1. Spleen (Sprague-Dawley rats) microsomal fractions were prepared according to the procedure outlined by Ryter et al.[33]. The experiments reported in the present paper complied with current Italian law and met the guidelines of the Institutional Animal Care and Use Committee of […] OF HEALTH (Directorate General for Animal Health and Veterinary Medicines) (Italy). […]
Liver cytosol has been used as a source of BVR. […] The 100,000 g supernatant was saved and then stored in small amounts at −80 °C after its protein concentration was measured.
The HO-1 activity was determined by measuring the bilirubin formation using the difference in absorbance at 464 to 530 nm as described by Ryter et al.[33]. […] After recovering the chloroform phase, the amount of bilirubin formed was measured with a double-beam spectrophotometer as OD464-530 nm (extinction coefficient, […] for bilirubin). […]
Inhibition activity assay for HO-1 was performed by extracting the enzyme from the rat spleen microsomal fraction. […] Results are expressed as enzyme inhibition activity (IC50) in μM (Table S2, Supplemental material).

[5] = Chemical stability of 3 in buffer solutions at different pHs (HPLC); format: physicochemical; conditions: 37 °C
Description: The HPLC analysis of samples at various time intervals from in vitro stability in different buffers and porcine esterase solution was performed on Shimadzu Prominence-i LC-2030C 3 D Plus equipped with RID20A. Detector chromatographic separation were carried out using Chromolith SpeedROD RP […], Merck. Spectra were analysed in 200–800 nm range with 1.2 nm resolution. The column was maintained at 30 °C and eluted under gradient conditions from 100% to 0% of eluent A over 3 min, at a flow rate of 5 ml min^−1. Eluent A: water/trifluoroacetic acid (0.1%, v/v); eluent B: acetonitrile/ trifluoroacetic acid (0.1%, v/v).
A stock solution of compound 3 in DMSO (3.0 mg/mL) was prepared. To a test tube containing 0.9 ml of the corresponding Acetate (pH = 2.0) or PBS buffer solution (pH = 7.4 and 8.0, respectively), 0.1 ml of stock solution was added, and the mixture stirred and thermostated in a sand bath at 37 °C. Aliquots (0.1 ml) were withdrawn at specific time intervals and transferred to sample vials containing acetonitrile (0.9 ml). The percentage of compound remaining was followed by HPLC analysis. The retention time (tR) of compound 1, 2, and 3 were 0.74, 0.89, and 0.95 min, respectively. All the experiments were performed in triplicate.
0.001 g of lyophilised powder of esterase from the porcine liver (Sigma-Aldrich, St. Louis, Missouri, USA) was reconstituted in 1.0 ml PBS buffer (0.01 M, pH 7.4) to make an aqueous porcine esterase solution (5 U/mL), and then pre-thermostated at 37 °C. To a test tube containing 1.85 ml of PBS buffer, 0.15 ml from the stock solution of the test compound was added. The mixture was then stirred and thermostated in a sand bath at 37 °C, and 1.0 ml of the porcine esterase solution was added to initiate the enzymatic reaction. For the negative control reaction, the volume of porcine esterase solution was replaced by phosphate buffer. Aliquots (0.3 ml) were withdrawn at 0, 30, 60, 120, 180, and 240 min, and quenched with cold acetonitrile (0.7 ml)[28]. The samples were centrifuged for 6 min at 10,000 rpm, and supernatants were analysed by HPLC to check the amounts (area under the curve, AUC) of the remaining intact compound. All the experiments were performed in triplicate. Pseudo-first-order rate constant for the hydrolysis was determined from the slope of linear plots of the natural logarithm (ln) of the AUC of the peak at time t (AUCt) against time. Half-life (t1/2) was calculated according to Equation (1): (1) t1/2 = ln 2/k were k is the pseudo-first-order rate constant.
The chemical stability of 3 was evaluated at different pH values to mimic physiological conditions, including gastrointestinal (GI) tract (pH = 2.0), human plasma (pH = 7.4), and pancreatic fluid (pH = 8.0). As a result, the pH value strongly affected the chemical stability and hydrolysis rate of the hybrid 3 (Figure 2).

## OC(Cn1ccnc1)c1cccc(Br)c1 (centres unmarked) [Compound 1, 1–(3-bromophenyl)-2-(1H-imidazol-1-yl)ethanol]
[1]; A549 cells, 1, 10 and 50 μM
  Effect on cell viability: no cytotoxic effect
[2]
  Toxicity prediction: Irritant: none
  Toxicity prediction: Mutagenic: none
  Toxicity prediction: Reproductive Effects: none
  Toxicity prediction: Tumorigenic: none
[3]; DU145 cells, 1, 10 and 50 μM
  Effect on cell viability: no cytotoxic effect
[4]; human intestinal absorption
  HIA (%): 96.1%
[4]; in vitro Caco-2 cell permeability
  Papp: 2.96 ×10⁻⁶ cm/s
[4]; in vitro plasma protein binding
  PPB (%): 65%
[4]; in vivo blood-brain barrier penetration
  BBB (Cbrain/Cblood): 0.7 Cbrain/Cblood

## O=C(O)CCC(=O)OC(Cn1ccnc1)c1cccc(Br)c1 (centres unmarked) [Compound 2, 4‐[1‐(3‐bromophenyl)‐2‐(1H‐imidazol‐1‐yl)ethoxy]‐4‐oxobutanoic acid]
HO-1
  IC50: 105 ± 5.8 µM
other
  melting point: 64 to 66.5 °C

## O=C(CCC(=O)OC(Cn1ccnc1)c1cccc(Br)c1)OCn1cc(F)c(=O)[nH]c1=O (centres unmarked) [Compound 3, 1‐[1‐(3‐bromophenyl)‐2‐(1H‐imidazol‐1‐yl)ethyl]4‐(5‐fluoro‐2,4‐dioxo‐1,2,3,4‐tetrahydropyrimidin‐1‐yl)methyl butanedioate]
HO-1
  IC50: 82 ± 2.1 µM
[5]; PBS buffer without esterase, PBS buffer (pH = 7.4), no esterase, read-out: Half-life (t1/2) of hydrolysis
  half-life at 0.15 mg/mL: 28.1 h
[5]; pH = 2.0, 0 h
  % Compound remaining: 100 ± 0.0%
[5]; pH = 2.0, 24 h
  % Compound remaining: 94.2 ± 0.9% and 94.2%
[5]; pH = 2.0, 48 h
  % Compound remaining: 92.2 ± 0.6%
[5]; pH = 2.0, 72 h
  % Compound remaining: 86.8 ± 6.0%
[5]; pH = 2.0, 96 h
  % Compound remaining: 77.1 ± 6.5%
[5]; pH = 2.0, 168 h
  % Compound remaining: 73.5 ± 4.7%
[5]; pH = 7.4, 0 h
  % Compound remaining: 100 ± 0.0%
[5]; pH = 7.4, 24 h
  % Compound remaining: 77.3 ± 3.9% and 77.3%
[5]; pH = 7.4, 48 h
  % Compound remaining: 71.2 ± 4.5%
[5]; pH = 7.4, 72 h
  % Compound remaining: 52.6 ± 3.8%
[5]; pH = 7.4, 96 h
  % Compound remaining: 34.7 ± 2.2%
[5]; pH = 7.4, 168 h
  % Compound remaining: 18.0 ± 4.2%
[5]; pH = 8.0, 0 h
  % Compound remaining: 100 ± 0.0%
[5]; pH = 8.0, 24 h
  % Compound remaining: 50.4 ± 2.4% and 50.4%
[5]; pH = 8.0, 48 h
  % Compound remaining: 36.1 ± 2.1%
[5]; pH = 8.0, 72 h
  % Compound remaining: 19.7 ± 1.6%

## O=c1[nH]cc(F)c(=O)[nH]1 [Compound 5-FU, 5-Fluorouracil, reference compound]
[1]; Homo sapiens, A549 cells, MTT
  IC50: 0.98 ± 0.13 µM
[3]; Homo sapiens, DU-145, DU145 cells, MTT
  IC50: 31.7 ± 0.92 µM
